Measurements from PubChem BioAssay (NCI).
Values joined by “and” are separate entries in the source; they are usually repeats but may differ in a detail not shown here. Equal values may be shown once.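 Results reflect a 48-hour exposure of cells in 96-well plates to compound at five concentrations. Abbreviation: GI50, concentration required for 50% inhibition of growth. TGI marks complete inhibition of growth.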

Columns and labels:
Test in all cases: growth of human tumour cells (NCI), 48 h
[1] = system: 786-0 renal
[2] = system: COLO 205 colon
[3] = system: OVCAR-8 ovarian
[4] = system: RPMI-8226 leukemia
[5] = system: SF-268 CNS
[6] = system: SK-MEL-5 melanoma
[7] = system: SNB-75 CNS
[8] = system: SR leukemia
[9] = system: OVCAR-5 ovarian
[10] = system: CAKI-1 renal

SMILES: COc1ccc2c(c1OC)C(=O)C2
- TGI [1]: > 100 µM
- TGI [2]: > 100 µM
- TGI [3]: > 100 µM
- TGI [4]: > 100 µM
- TGI [5]: > 100 µM
- TGI [6]: > 100 µM
- TGI [7]: > 100 µM
- TGI [8]: > 100 µM

SMILES: C(=N\NC1=NCCCCN1)/c1ccc2ccccc2c1
- TGI [1]: 67.9 µM
- TGI [2]: 31.5 µM
- TGI [9]: 76.7 µM
- TGI [3]: > 100 µM
- TGI [4]: 76.1 µM
- TGI [5]: > 100 µM
- TGI [6]: 31.3 µM
- TGI [7]: > 100 µM

SMILES: COC(=O)c1ccc(OCCn2nnc(C(=O)NN)c2C(=O)NN)cc1
- TGI [1]: > 100 µM
- TGI [10]: > 100 µM
- TGI [2]: > 100 µM
- TGI [9]: > 100 µM
- TGI [3]: > 100 µM
- TGI [4]: > 100 µM
- TGI [6]: > 100 µM
- TGI [8]: > 100 µM

SMILES: COc1ccc2[nH]c3ccc4cc[n+](CCN5CCC(C6CCN(CC[n+]7ccc8ccc9[nH]c%10ccc(OC)cc%10c9c8c7)CC6)CC5)cc4c3c2c1
- TGI [1]: 50 µM
- GI50 [10]: 10.9 µM
- TGI [10]: 50 µM and 68.1 µM
- TGI [2]: > 50 µM
- GI50 [9]: 39.2 µM
- TGI [9]: 50 µM and > 91.1 µM
- GI50 [3]: 8.28 µM
- TGI [3]: 50 µM and > 100 µM
- GI50 [4]: 0.367 µM and 0.443 µM
- TGI [5]: 50 µM and > 56.9 µM
- GI50 [6]: 6.7 µM
- TGI [6]: 41.3 µM and 60.7 µM
- TGI [7]: 50 µM
- TGI [8]: 50 µM

SMILES: N=C1OC(CN2CCN(c3ccccc3)CC2)CN1C(=O)Nc1ccccc1 (configuration not stated)
- TGI [1]: > 100 µM
- TGI [10]: > 100 µM
- TGI [2]: > 100 µM
- TGI [9]: > 100 µM
- TGI [3]: > 100 µM
- TGI [4]: > 100 µM
- TGI [5]: > 100 µM
- TGI [6]: > 100 µM
- TGI [8]: > 100 µM

SMILES: COc1cc(/C=C/c2ccc(OC)c(OC)c2)oc(=O)c1
- TGI [10]: > 114 µM
- TGI [2]: > 250 µM
- TGI [9]: > 250 µM
- TGI [3]: > 11.6 µM
- TGI [4]: > 250 µM
- TGI [5]: > 250 µM
- TGI [6]: > 250 µM
- TGI [7]: > 227 µM

SMILES: Cc1cccc2c(=O)c3cccc([C@H](C)C(=O)O)c3oc12
- TGI [1]: > 100 µM
- TGI [10]: > 100 µM
- TGI [2]: > 100 µM
- TGI [3]: > 100 µM
- TGI [4]: > 100 µM
- TGI [5]: > 100 µM
- TGI [6]: > 100 µM
- TGI [8]: > 100 µM

SMILES: COc1cc(C[C@@]2(C)[C@@H]3CCC[C@H](CO)[C@@]3(C)CC[C@@H]2C)c(Cl)c(OC)c1
- TGI [1]: 29.1 µM
- TGI [10]: 31.1 µM
- TGI [2]: 30.2 µM
- TGI [9]: 32.9 µM
- TGI [3]: 31.7 µM
- TGI [4]: 76.2 µM
- TGI [5]: 30.8 µM
- TGI [6]: 31.8 µM
- TGI [7]: 31.9 µM
- TGI [8]: 48.5 µM

SMILES: COC(=O)[C@@]12CSC[C@]1(C(=O)OC)N[C@@H](c1ccccc1O)C2
- TGI [1]: > 100 µM
- TGI [10]: > 100 µM
- TGI [2]: > 100 µM
- TGI [9]: > 100 µM
- TGI [3]: > 100 µM
- TGI [4]: > 100 µM
- TGI [5]: > 100 µM
- TGI [6]: > 100 µM
- TGI [7]: > 100 µM
- TGI [8]: > 100 µM

SMILES: CC(C)(C)OC(=O)NC(CSCc1ccc(C(=O)c2ccccc2)cc1)C(=O)N1CCN(CCCCN2c3ccccc3Sc3cc(N=[N+]=[N-])ccc32)CC1 (configuration not stated)
- TGI [1]: > 100 µM
- TGI [10]: > 100 µM
- TGI [2]: > 100 µM
- TGI [9]: > 100 µM
- TGI [3]: > 100 µM
- TGI [5]: > 100 µM
- TGI [6]: > 100 µM
- TGI [7]: > 100 µM

SMILES: Cc1ccc([N+](=O)[O-])cc1S(=O)(=O)Nc1ccc(C2=NN(S(=O)(=O)c3cc([N+](=O)[O-])ccc3C)C(c3cccs3)C2)cc1 (configuration not stated)
- TGI [1]: > 100 µM
- TGI [10]: > 100 µM
- TGI [2]: 25.3 µM
- TGI [9]: > 100 µM
- TGI [3]: > 100 µM
- TGI [4]: 67.6 µM
- TGI [5]: 75 µM
- TGI [6]: > 100 µM
- TGI [7]: > 100 µM
- TGI [8]: 66.1 µM

SMILES: O=C(N/N=C\c1ccc(Cl)cc1)Nc1ccc2ccccc2c1
- TGI [1]: 38.4 µM
- TGI [10]: > 100 µM
- TGI [2]: > 100 µM
- TGI [9]: > 100 µM
- TGI [3]: 73.2 µM
- TGI [4]: > 100 µM
- TGI [5]: 71.3 µM
- TGI [6]: > 100 µM
- TGI [7]: 76.8 µM
- TGI [8]: > 100 µM

SMILES: O=C(O)c1ccc2c(O)c(O)ccc2c1
- TGI [1]: 43.9 µM
- TGI [10]: 48.2 µM
- TGI [2]: > 64 µM
- TGI [9]: 57.5 µM
- TGI [3]: 47.9 µM
- TGI [4]: 40.2 µM
- TGI [5]: 22.3 µM
- TGI [6]: 35.6 µM
- TGI [7]: 22.4 µM
- TGI [8]: 13.8 µM

SMILES: Cc1nc2c(Cl)cc(Cl)cc2c2c1CCO2
- TGI [1]: > 100 µM
- TGI [10]: > 100 µM
- TGI [2]: > 100 µM
- TGI [9]: > 100 µM
- TGI [3]: > 100 µM
- TGI [4]: > 100 µM
- TGI [5]: > 100 µM
- TGI [6]: > 100 µM
- TGI [7]: > 100 µM
- TGI [8]: > 100 µM

SMILES: COP(=O)(OC)C(N)Cc1c[nH]c2ccccc12 (configuration not stated)
- TGI [10]: > 100 µM
- TGI [2]: > 100 µM
- TGI [9]: > 100 µM
- TGI [3]: > 100 µM
- TGI [4]: > 100 µM
- TGI [6]: > 100 µM
- TGI [7]: > 100 µM

SMILES: CC1[C@@]2(O[C@@H]3C=C4C5CCC6Cc7nc8c(nc7C[C@@]6(C)C5C[C@H](O)[C@@]4(C)[C@]13O)CC1CCc3c(cc4c5c3C(O)C[C@H]5[C@@H](C)C3(O4)OC(C)(C)CC3O)[C@]1(C)C8)O[C@@](C)(CO)C[C@@H]2O (some centres not stated)
- TGI [10]: > 3.72 µM
- TGI [2]: 1.07 µM
- TGI [9]: 1.48 µM
- TGI [3]: > 3.72 µM
- TGI [4]: 0.21 µM
- TGI [5]: 2.65 µM
- TGI [6]: > 3.72 µM
- TGI [7]: 0.372 µM

SMILES: CC1=C[P+](c2ccccc2)(c2ccccc2)c2ccccc2O1
- TGI [1]: > 100 µM
- TGI [10]: > 100 µM
- TGI [2]: 2.89 µM
- TGI [9]: > 100 µM
- TGI [3]: > 100 µM
- TGI [5]: > 100 µM
- TGI [6]: 13.5 µM
- TGI [7]: > 100 µM
- TGI [8]: 8.28 µM

SMILES: CCCCn1c(=O)[nH]c2c(N)ncnc21
- TGI [1]: > 100 µM
- TGI [2]: > 100 µM
- TGI [9]: > 100 µM
- TGI [3]: > 100 µM
- TGI [5]: > 100 µM
- TGI [6]: > 100 µM
- TGI [7]: > 100 µM

SMILES: C/C(Cc1ccc2c(c1)OCO2)=N\N=c1\sc2ccccc2n1C
- TGI [1]: > 100 µM
- TGI [10]: > 100 µM
- TGI [2]: > 100 µM
- TGI [9]: > 100 µM
- TGI [3]: > 100 µM
- TGI [4]: > 100 µM
- TGI [5]: > 100 µM
- TGI [6]: > 100 µM

SMILES: O=[N+]([O-])c1ccc(C[P+]2(c3ccccc3)CCCCC2)cc1 (tested in a mixture with another compound)
- TGI [1]: > 100 µM
- TGI [10]: > 100 µM
- TGI [2]: > 100 µM
- TGI [9]: > 100 µM
- TGI [3]: > 100 µM
- TGI [4]: > 100 µM
- TGI [5]: > 100 µM
- TGI [6]: 84.2 µM
- TGI [7]: > 100 µM

SMILES: COC(=O)c1csc(-c2csc(CCNC(=O)OC(C)(C)C)n2)n1
- TGI [1]: > 100 µM
- TGI [2]: > 100 µM
- TGI [9]: > 100 µM
- TGI [3]: > 100 µM
- TGI [4]: > 100 µM
- TGI [5]: > 100 µM
- TGI [6]: > 100 µM
- TGI [7]: > 100 µM
- TGI [8]: > 100 µM

SMILES: Cc1cn(S(=O)(=O)c2ccccc2)c2c(OCc3ccccc3)cc([N+](=O)[O-])cc12
- TGI [1]: > 100 µM
- TGI [10]: > 100 µM
- TGI [2]: > 100 µM
- TGI [9]: > 100 µM
- TGI [3]: > 100 µM
- TGI [4]: > 100 µM
- TGI [5]: > 100 µM
- TGI [6]: > 100 µM
- TGI [7]: > 100 µM
